Results on five compounds are retold here after patent US4528377A, “Substituted 3,4-diamino-1,2,5-thiadiazoles having histamine H2 -receptor antagonist activity” (Bristol-Myers Company, priority 1983, dated 1985).

The test system of assay [1] is gastric acid secretion. Description: Gastric antisecretory activity in the gastric fistula rat. As to conditions: sc, relative to cimetidine. Type of assay: in vivo, Long Evans rats.
The target in assay [2] is T1, histamine H2-receptors (Cavia porcellus, UniProt P47747).
T1 construct: The spontaneously beating right atrium was dissected free from other tissues; from tissue; host or cells: isolated right atrium of male Hartley strain guinea pigs
T1 sequence (P47747 whole entry): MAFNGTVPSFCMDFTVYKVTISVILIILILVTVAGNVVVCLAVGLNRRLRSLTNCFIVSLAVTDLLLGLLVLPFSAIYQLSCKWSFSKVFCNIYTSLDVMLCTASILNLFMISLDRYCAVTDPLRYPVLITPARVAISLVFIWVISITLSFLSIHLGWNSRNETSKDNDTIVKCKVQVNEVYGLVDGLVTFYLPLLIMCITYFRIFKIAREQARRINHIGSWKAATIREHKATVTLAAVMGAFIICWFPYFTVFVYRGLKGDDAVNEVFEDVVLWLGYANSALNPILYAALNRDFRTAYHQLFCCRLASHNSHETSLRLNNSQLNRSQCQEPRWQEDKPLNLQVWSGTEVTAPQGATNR
The experiment in a line: Histamine H2-receptor antagonism, isolated guinea pig right atria assay. It counts as cell-based, Hartley strain guinea pigs. As to conditions: for Kb: Schild plot, 30-minute incubation, 95% confidence limits in parentheses, read-out: KB (dissociation constant); for Potency Ratio (cimetidine = 1.0): relative to cimetidine. On the procedure:
Subsequent investigations by Hughes and Coret, Proc. Soc. […] Black et al., Agents and Actions, 3, 133 (1973) and Brimblecombe et al., Fed. […] The present comparative studies were carried out using a modification of the procedure reported by Reinhardt et al., Agents and Actions, 4, 217 (1974).
The spontaneously beating right atrium was dissected free from other tissues and a silk thread (4-0) attached to each end. […] Atrial contractions were recorded isometrically by means of a Grass FT 0.03 force displacement transducer and recordings of contractile force and rate were made with a Beckman RP Dynograph.

Assay [3] deals with peptic ulcer disease. Conditions: clinical evaluation, Gray et al., Lancet, 1, 8001 (1977); cited from earlier work.

SMILES strings stand for the structures.

Broadly, the Kb is the affinity of an antagonist, worked out from how it opposes an agonist. On to `Nc1nsnc1NCCCOc1cccc(CN2CCCCC2)c1` [Example 1, 3-Amino-4-[3-(3-piperidinomethylphenoxy)propylamino]-1,2,5-thiadiazole], for which the “Potency Ratio (cimetidine = 1.0)” value in assay [1] worked out at 37. For the same compound, in assay [2], the antagonist equilibrium constant (Kb) was determined as 3 nM and the “Potency Ratio (cimetidine = 1.0)” value is 137.

Take `Nc1nsnc1NCCCOc1cccc(CN2CCCC2)c1` [Example 4, 3-Amino-4-[3-(3-pyrrolidinomethylphenoxy)propylamino]-1,2,5-thiadiazole]: the “Potency Ratio (cimetidine = 1.0)” value in assay [1] stood at 20. In assay [2], the antagonist dissociation constant (Kb) turned out to be 4 nM and the “Potency Ratio (cimetidine = 1.0)” value turned out to be 102.

For the compound `Cc1cc(CSCCNc2nsnc2N)sc1CN(C)C` [Example 3, 3-Amino-4-{2-[(5-dimethylaminomethyl-4-methyl-2-thienyl)methylthio]ethylamino}-1,2,5-thiadiazole], the “Potency Ratio (cimetidine = 1.0)” value in assay [1] is on record as ~ 7.

`CN/C(=N/CCSCc1nc[nH]c1C)NC#N` [cimetidine]: in assay [3], the “effect in treatment of peptic ulcer disease” value is “effective therapeutic agent in the treatment of peptic ulcer disease”.

As to `CN(C)Cc1ccc(CSCCNc2nsnc2N)o1` [Example 2, 3-Amino-4-{2-[(5-dimethylaminomethyl-2-furyl)methylthio]ethylamino}-1,2,5-thiadiazole], the “Potency Ratio (cimetidine = 1.0)” value in assay [1] is 4.5.
